Reference: US6441205B1, “Synthetic precursors to 4-(P-methoxyphenyl)-2-amino-butane” (Council of Scientific and Industrial Research, priority 2000, dated 2002)
Where two headings read alike, the source gives them in different places.

Tests used:
[1] = sensitivity to light (UV and sunlight); assay type: physicochemical; conditions: both UV and sunlight
[2] = tested on: 4th instar larvae of Spilarctia obliqua; assay: growth inhibition bioassay, diet-mix method; assay type: in vivo, Spilarctia obliqua (Bihar hairy caterpillar); conditions: bioassay studies
Procedure: (§1) The compound having formula (1) was evaluated as feeding deterrent and growth inhibitor against 4th in star larvae of spilarctia obliqua (Bihar hairy caterpillar). This insect attacks more than twenty cash crops like urd, moong, arhar, mint and coleus etc. Several synthetic insecticides like quinalphos, Phosphamidon and synthetic pyrethroids are commercially used to manage this insect pest. But, the insect is developing resistance towards some of these insecticides. Therefore, it has now become imperative to search for new ecologically safe, environmentally sound and non-toxic chemicals to manage this pest.
With compound having formula (1) insect feeding deterrency and growth inhibition was tested by diet-mix method. In this method, 4-(p-methoxyphenyl)-2-aminobutane the compound having formula (1) was dissolved in acetone to make various concentrations ranging from 1000 to 5000 ppm. Test solution was mixed in the artificial diet of the insect so that each gram of diet contained 60-300 μg of the compound (1). 4th in star larva (newly molted) starved four hours, was weighed and released on treated artificial diet in thirty replications. […] After 24 hours, number of fecal pellets produced were counted, and the data were analyzed for % feeding deterrency. […] After 3 days, experiment was discontinued and weight gain or loss was analyzed for % growth inhibition. […]

[3] = tested on: 4th instar larvae of Spilarctia obliqua; assay: feeding deterrency (antifeedant) bioassay, diet-mix method; assay type: in vivo, Spilarctia obliqua (Bihar hairy caterpillar); conditions: for % feeding deterrency: diet-mix, fecal pellets after 24 hours; for antifeedant activity (in words): bioassay studies
Procedure: as §1
With compound having formula (1) insect feeding deterrency and growth inhibition was tested by diet-mix method. In this method, 4-(p-methoxyphenyl)-2-aminobutane the compound having formula (1) was dissolved in acetone to make various concentrations ranging from 1000 to 5000 ppm. Test solution was mixed in the artificial diet of the insect so that each gram of diet contained 60-300 μg of the compound (1). 4th in star larva (newly molted) starved four hours, was weighed and released on treated artificial diet in thirty replications. In control, only solvent acetone was mixed and azadirachtin at 1000 ppm concentration was taken as standard for feeding bioassay. After 24 hours, number of fecal pellets produced were counted, and the data were analyzed for % feeding deterrency. Some experiments were continued for next 24 hours and weights of the larva were taken daily. After 3 days, experiment was discontinued and weight gain or loss was analyzed for % growth inhibition.
Diflubenzuron at 5 ppm was taken as a standard in case of growth inhibitory assay. The test result of compound having formula (1) in terms of its feeding deterrency and growth inhibition as compared to standards azadirachtin and diflubenzuron are given in table 1.

[4] = exposure to sun light; cited from earlier work

Row | SMILES | sensitivity to light [1] | growth inhibition activity (in words) [2] | % feeding deterrency ([3]; 1000 ppm) [%] | % feeding deterrency ([3]; 2000 ppm) [%] | % feeding deterrency ([3]; 3000 ppm) [%] | % feeding deterrency ([3]; 4000 ppm) [%] | % feeding deterrency ([3]; 5000 ppm) [%] | antifeedant activity (in words) [3] | sensitivity to light [4]
1 | COc1ccc(CCC(C)N)cc1 (stereo not drawn) [Compound 1, 4-(p-methoxyphenyl)-2-amino butane] | not sensitive to light | significant activity | 32.0 | 40.0 | 64.0 | 82.0 | 100.0 | significant activity | –
2 | CC(O)CCc1ccc(O)cc1 (stereo not drawn) [compound (2), 4-(p-hydroxyphenyl)-butan-2-ol] | – | not found to be active | – | – | – | – | – | not found to be active | –
3 | C/C=C(\C)C(=O)O[C@H]1C[C@@H](OC(C)=O)[C@@]2(C(=O)OC)CO[C@H]3[C@@H](O)[C@@](C)([C@]45O[C@@]4(C)[C@H]4C[C@@H]5O[C@@H]5OC=C[C@@]54O)[C@H]4[C@]1(CO[C@]4(O)C(=O)OC)[C@@H]32 [Azadirachtin, reference compound] | – | – | 100.0 | – | – | – | – | – | photosensitive
